Source: patent US12473332B2, “Modified peptides and associated methods of use” (Advanced Technologies For Novel Therapeutics, LLC, priority 2019, dated 2025)
Where no end group is shown, it is not given here.

Test system: panel of 32 kinases
Assay: in vitro kinase selectivity panel of 32 kinases
Assay type: biochemical
Conditions: at IC50 for AKT1 (0.1 μM)
Experimental: To test the specificity/selectivity of ZaTa as the inhibitor of AKT1 versus the other major kinases, a series of in vitro kinase assays was performed at IC50 for AKT1 and at ten times higher concentrations. A panel of the following 32 kinases was first tested in vitro using the active form of each kinase and a specific substrate: AKT2, AKT3, PKA, PKCα, PKCγ, PI3Kβ, PI3Kδ, PI3Kγ, SGK, PAK2, PAK3, SAPK2/p38, Abl, CaMKII, CDK1/cyclinB, CDK5/p35, CK1, CK2, CSK, GSK3α, GSK3β, JNK1α1, MAPK1, p70S6K, PDGFRα, PDGFRβ, PDK1, PKG1α, TrkB, JAK2, JAK3, and Syk. […] However, at ten times higher concentration, ZaTa inhibited AKT2 (63%), PI3Kδ (72%), p70S6K (64%), SGK (73%), PAK3 (83%), JAK3 (79%), TrkB (84%), and Abl (42%). To confirm the in vitro inhibitory effect on these kinases in cells, a cell-based assay was used to determine the effect of labeled ZaTa on the phosphorylation levels of well-known intracellular substrates for each kinase (Zipfel, et al. (2004) Curr. Biol. 14:1222-1231; Wang, et al. (2003) Arch. Biochem. Biophys. 410:7-15; King, et al. (1998) Nature 396:180-183; Rangone, et al. (2004)Eur. J. Neurosci. 19:273-279; Middlemas, et al. (1994)J. Biol. Chem. 269:5458-5466; Huang, et al. (1999) J. Biol. Chem. 274:7870-7878). The results of this cell-based kinase assay confirmed that ZaTa could inhibit p70S6K besides AKT. […]

Sequence: AKRVKGRTWTLCGTPEY [Peptide 53, A-K-R-V-K-G-R-T-W-T-L-C-G-T-P-E-Y]
- inhibition of panel kinases: no significant inhibition
